Source: patent publication US20200253959A1, “COMPOUNDS AND PHARMACEUTICAL COMPOSITIONS THEREOF FOR USE IN THE TREATMENT OF FIBROTIC DISEASES” (Galapagos NV, priority 2017, published 2020)
“And” between values parts separate entries of the source, which are not always exact repeats. Identical values can stand only once.

Assays:
[1] = tested on: subjects with IPF; assay: Clinical study in IPF subjects: pulmonary function by spirometry (FVC); format: in vivo, human
Protocol: The study is a randomized, double-blind, parallel group, placebo-controlled, multicenter study to evaluate the test compound in subjects with IPF.
At baseline, after the subject's eligibility for the study has been confirmed, subjects are randomized in a 3:1 ratio test compound (600 mg q.d.) : matching placebo administered for 12 weeks.
Subjects receive 600 mg of test compound (3 capsules of 200 mg) or placebo q.d. for 12 weeks administered in the morning.
Pulmonary function will be assessed through spirometry both performed at the study center (at screening, baseline, and thereafter post dose at the time points indicated in the study schedule and according to sequence of study assessments) and at home (at baseline and thereafter post dose; on a daily basis in the morning). Specific instructions on how to perform the spirometry at home are provided in a separate spirometry user manual.
The following parameters will be measured as part of the spirometry assessment: • FEV1 (L) and percent predicted FEV1 • FVC (L) and percent predicted FVC • FEV1/FVC ratio • Forced expiratory flow (FEF) between 25 and 75% of exhaled volume (FEF25-75)

[2] = tested on: LPA C8:2; assay: Plasma LPA reduction in healthy volunteers (PK/PD correlation in plasma); format: in vivo, human
Excerpt: (§1) A first trial is a randomized, double-blind, placebo-controlled, single center study evaluating single ascending doses (SAD) and multiple ascending (MAD) doses of compound 1 in healthy male volunteers (see Van der Aar E M, 2016).

[3] = Test compound plasma levels and PK parameters in IPF patients (LC-MS/MS, non-compartmental analysis); format: in vivo, human; settings: for Compound I concentration: listed as Compound I
Protocol: The test compound plasma levels were determined by LC-MS/MS and PK parameters by non-compartmental analysis using Phoenix WinNonlin.

[4] = tested on: LPA 18:2; assay: LPA 18:2 levels in blood samples of IPF subjects; format: in vivo, human; settings: for LPA 18:2 % reduction: IPF patients, plasma
Protocol: (§2) Blood samples of 14 mL will be collected predose by venipuncture (or indwelling catheter for pharmacokinetic sampling days) in the arm at the time points indicated in the study flow chart and according to sequence of study assessments.
From the blood samples, the LPA 18:2 levels are determined using laboratory techniques.

[5] = tested on: surfactant protein A; assay: Biomarker analysis surfactant protein A in blood of IPF subjects; format: in vivo, human; settings: following 12 weeks of treatment
Protocol: as §2
The following exploratory biomarkers are evaluated in blood samples: • KL-6/Muc1 • surfactant protein A and D • CCL18 • ATX • MMP1, MMP7 • markers of extracellular matrix (ECM) turnover (neoepitope assay)

[6] = Compound plasma concentration in healthy volunteers (PK/PD correlation in plasma); format: in vivo, human; settings: listed as Compound I
Excerpt: as §1

[7] = tested on: subjects with IPF; assay: Functional respiratory imaging (FRI) from HRCT in IPF subjects; format: in vivo, human
Excerpt: HRCT will be performed (post dose if applicable) at the time points indicated in the study chart (see 1.4 above) and according to sequence of study assessments. HRCT scans will be used to generate FRI measurements allowing for an evaluation of regional IPF disease manifestation and disease progression. In case the subject is on bronchodilators, he/she can use the bronchodilator after the spirometry but prior to HRCT for FRI parameters.
At each computed tomography (CT) assessment an inspiratory and an expiratory scan will be taken. During the baseline visit an additional scan of the upper airway will be taken. The inspiratory and an expiratory scan will expose the subject to a total radiation dose of approximately 4-5 mSv per visit, including the initial CT localizer radiograph (topogram scout). The upper airway scan will expose a subject to approximately 1 mSv. A radiation dose of approximately 2-2.5 mSv is equivalent to approximately 1 year of background radiation (based on the assumption of an average “effective dose” from natural background radiation is of 3.1 mSv per year in the US and 2.4 mSv per year in Europe. (USNRC, 2014; WNA, 2015)
All CT images will be imported into Mimics, a commercial, medical image processing software package (Materialise, Leuven, Belgium, Food and Drug Administration, K073468; CE certificate, BE 05/1191 CE01) for analysis. This software package converts the HRCT images into patient specific, 3-dimensional computer models of the lung lobes, the airway lumen and wall, and the vascular tree. The airway and vascular tree are evaluated at functional residual capacity (FRC) and total lung capacity (TLC) level and can be segmented down to bronchi/vessels with a diameter of around 1-2 mm. Beyond this point the HRCT resolution is insufficient to distinguish alveolar and intraluminal air, or blood vessel tissue and surrounding lung tissues. A typical airway model includes 5-10 generations, depending mainly on the disease state of the individual patient. Afterwards the airway lumen models will be processed further to obtain a model that is suitable for flow calculations.
The following FRI parameters based on low-dose inspiratory-expiratory multi-slice CT images and computational fluid dynamics flow simulations will be evaluated. • lobar volumes at FRC and TLC • airway volumes at FRC and TLC • airway resistance • internal lobar airflow distribution • low attenuation or emphysema score at TLC • blood vessel density or fibrosis score at TLC • airway wall thickness at TLC • air trapping at FRC • mass of deposited particles per defined airway section

[8] = tested on: LPA 18:2; assay: Human plasma assay for the reduction of LPA 18:2; format: biochemical

CCc1nc2c(C)cc(N3CCN(CC(=O)N4CC(O)C4)CC3)cn2c1N(C)c1nc(-c2ccc(F)cc2)c(C#N)s1 [Compound 1]
FVC CFB ([1]; 600 mg q.d., Week 4, IPF subjects): +116 mL | FVC CFB ([1]; 600 mg q.d., Week 8, IPF subjects): +15 mL | FVC CFB ([1]; 600 mg q.d., Week 12, IPF subjects, mean from baseline, listed as Cpd I): +8 mL | FVC CFB ([1]; 600 mg q.d., Week 12, IPF subjects, mean from baseline, listed as compound according to Formula I): 8 mL | FVC CFB ([1]; Follow up (2 weeks after last administration of 600 mg q.d.)): -55 mL | LPA C8:2 % reduction ([2]; D 14 - 6 h post-dose): 83% | LPA C8:2 % reduction ([2]; D 14 - 24 h post-dose): 66% | Compound I concentration ([3]; Week 4 - 0 h post-dose (second line so labelled, r10), plasma): 6557 nM and 3860 ng/mL | Compound I concentration ([3]; Week 4 - 0 h post-dose, plasma): 1020 nM and 604 ng/mL | Compound I concentration ([3]; Week 12 - 0 h post-dose, plasma): 1698 nM and 1000 ng/mL | AUC ([3]; human, plasma, oral, week 4, 600 mg q.d., read-out: mean area under the plasma concentration time curve for the dosing interval of 24 hours (AUC0-τ)): 55600 ng·h/mL | Cmax ([3]; human, plasma, oral, week 4, 600 mg q.d., read-out: median maximum observed plasma concentration (Cmax)): 6060 ng/mL | Tmax ([3]; human, plasma, oral, week 4, 600 mg q.d., read-out: median tmax): 4 h | trough plasma concentration (Cτ) ([3]; week 4, 600 mg q.d.): 604 ng/mL | LPA18:2 percentage reduction ([4]; 600 mg q.d., Week 4, positive value = reduction): 52.48% | LPA18:2 percentage reduction ([4]; 600 mg q.d., Week 12, positive value = reduction): 67.48% | LPA18:2 percentage reduction ([4]; Follow up visit, negative value = increase in LPA levels): −34.36% | LPA 18:2 % reduction ([4]; Week 4 - 0 h post-dose (second line so labelled, r10)): 88% | LPA 18:2 % reduction ([4]; Week 4 - 0 h post-dose): 52% | LPA 18:2 % reduction ([4]; Week 12 - 0 h post-dose): 68% | LPA 18:2 levels after stopping the administration (in words) ([4]; after stopping administration): levels returning to or above baseline levels | LPA 18:2 levels on administration (in words) ([4]; during administration, 600 mg q.d.): stable decrease in LPA 18:2 levels | surfactant protein A in blood (in words) [5]: statistically significant increase | Compound I concentration ([6]; D 14 - 6 h post-dose): 6506 nM and 3830 ng/mL | Compound I concentration ([6]; D 14 - 24 h post-dose): 421 nM and 249 ng/mL | Specific airway resistance ([7]; Baseline, Compound 1 group): 0.11 kPa/sec | Specific airway volume ([7]; Baseline, Compound 1 group): 3.92 mL/L | Specific airway resistance ([7]; Week 12, 600 mg q.d.): 0.12 kPa/sec | Specific airway volume ([7]; Week 12, 600 mg q.d.): 3.80 mL/L | airway resistance (in words) ([7]; baseline vs Week 12): stabilization | airway volume (in words) ([7]; baseline vs Week 12): stabilization | IC50 in human plasma assay for the reduction of LPA 18:2 [8]: 0.143 µg/mL
